The IC50 is the concentration that gives 50% inhibition. Low readings indicate greater potency in that assay, high ones weaker potency in that assay.

The record followed here is patent US20230279025A1, “KRAS G12D INHIBITORS” (Mirati Therapeutics, Inc., priority 2020, published 2023).

Counter-ions that a name gives are not always drawn.

This test has as its target KRas G12D (Homo sapiens (Human), UniProt P01116, G12D). The test can be described thus: KRas G12D Binding Assay (TR-FRET displacement of Cy5 labelled tracer). To be noted: GDP-loaded KRAS G12D (amino acids 1:169), 60 minute incubation at 22° C. As to the method: After a 60 minute incubation at 22° C., the reaction was measured using a PerkinElmer EnVision multimode plate reader via TR-FRET dual wavelength detection, and the percent of control (POC) calculated using a ratiometric emission factor. […] The POC values were fit to a 4-parameter logistic curve and the IC50 value was determined as the concentration where the curve crosses 50 POC.
ND stands for “not determined.”

Chain of KRas G12D (P01116 other isoform, or with tags, fused parts or gaps G12D): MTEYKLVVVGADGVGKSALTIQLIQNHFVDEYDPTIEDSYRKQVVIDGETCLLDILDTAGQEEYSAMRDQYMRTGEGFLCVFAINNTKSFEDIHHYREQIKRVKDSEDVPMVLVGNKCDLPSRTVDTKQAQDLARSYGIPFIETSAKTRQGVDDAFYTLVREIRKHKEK

`Fc1c(-c2cccc3cccc(Cl)c23)ncc2c(N3C[C@H]4CC[C@@H](C3)N4)nc(OCC34CC(F)CN3CC(F)C4)nc12` (stereo partly drawn) [Example 425, 4-((1R,5S)-3,8-diazabicyclo[3.2.1]octan-3-yl)-7-(8-chloronaphthalen-1-yl)-2-((2,6-difluorohexahydro-1H-pyrrolizin-7a-yl)methoxy)-8-fluoropyrido[4,3-d]pyrimidine] registered an IC50 of 90.2 nM. Under `CC(C)(C)[Si](C)(C)OCC1CCC2(COc3nc(N4C[C@H]5CC[C@@H](C4)N5)c4cnc(-c5cccc6cccc(Cl)c56)c(F)c4n3)CCCN12` (stereo partly drawn) [Example 64, 4-((1R,5S)-3,8-diazabicyclo[3.2.1]octan-3-yl)-2-((3-(((tert-butyldimethylsilyl)oxy)methyl)tetrahydro-1H-pyrrolizin-7a(5H)-yl)methoxy)-7-(8-chloronaphthalen-1-yl)-8-fluoropyrido[4,3-d]pyrimidine] stands 3.3 nM. The compound `Nc1nc2c(-c3ncc4c(N5C[C@H]6CC[C@@H](C5)N6)nc(OCC56CCCN5CCC6)nc4c3F)cccc2s1` [Example 453, 4-(4-((1R,5S)-3,8-diazabicyclo[3.2.1]octan-3-yl)-8-fluoro-2-((hexahydro-1H-pyrrolizin-7a-yl)methoxy)pyrido[4,3-d]pyrimidin-7-yl)benzo[d]thiazol-2-amine] showed an IC50 of 27 nM. Under `CN1CCC[C@H]1COc1nc(N2C[C@H]3CC[C@@H](C2)N3)c2cnc(-c3cc(O)cc4ccccc34)c(Cl)c2n1` [Example 191, 4-(4-((1R,5S)-3,8-diazabicyclo[3.2.1]octan-3-yl)-8-chloro-2-(((S)-1-methylpyrrolidin-2-yl)methoxy)pyrido[4,3-d]pyrimidin-7-yl)naphthalen-2-ol] stands 69.1 nM; under `COC[C@H]1CC[C@@]2(COc3nc(N4CC5CCC(C4)N5)c4cnc(-c5cc(O)cc6ccccc56)c(F)c4n3)CCCN12` (stereo in doubt) [Example 389, 4-(4-((1R,5S)-3,8-diazabicyclo[3.2.1]octan-3-yl)-8-fluoro-2-((3-(methoxymethyl)tetrahydro-1H-pyrrolizin-7a(5H)-yl)methoxy)pyrido[4,3-d]pyrimidin-7-yl)naphthalen-2-ol], 1.4 nM; under `CN1C[C@H](NC(=O)c2ccccc2C=O)C[C@H]1COc1nc(N2C[C@H]3CC[C@@H](C2)N3)c2cnc(-c3cccc4cccc(Cl)c34)c(F)c2n1` [Example 355, N-((3R,5S)-5-(((4-((1R,5S)-3,8-diazabicyclo[3.2.1]octan-3-yl)-7-(8-chloronaphthalen-1-yl)-8-fluoropyrido[4,3-d]pyrimidin-2-yl)oxy)methyl)-1-methylpyrrolidin-3-yl)-2-formylbenzamide], 870 nM.

`Cc1cccc(O)c1-c1ncc2c(N3CC4CCC(C3)N4)nc(OC[C@@]34CCCN3C[C@H](F)C4)nc2c1F` (racemic) [Example 377, 2-(4-((1R,5S)-3,8-diazabicyclo[3.2.1]octan-3-yl)-8-fluoro-2-((2-fluorotetrahydro-1H-pyrrolizin-7a(5H)-yl)methoxy)pyrido[4,3-d]pyrimidin-7-yl)-3-methylphenol]: the IC50 is 417 nM. The same measure for `Cn1ccc(CCOc2nc(N3C[C@H]4CC[C@@H](C3)N4)c3cnc(-c4cccc5cccc(Cl)c45)c(F)c3n2)n1` [Example 145, 4-((1R,5S)-3,8-diazabicyclo[3.2.1]octan-3-yl)-7-(8-chloronaphthalen-1-yl)-8-fluoro-2-(2-(1-methyl-1H-pyrazol-3-yl)ethoxy)pyrido[4,3-d]pyrimidine]: 5000 nM.

In turn, `N=C(N)NCCOc1nc(N2CC3CCC(C2)N3)c2cnc(-c3cccc4cccc(Cl)c34)c(F)c2n1` [Example 176, 1-[2-[7-(8-chloro-1-naphthyl)-4-(3,8-diazabicyclo[3.2.1]octan-3-yl)-8-fluoro-pyrido[4,3-d]pyrimidin-2-yl]oxyethyl]guanidine] had a 50% inhibitory concentration (IC50) of 235 nM.

`CCc1c(F)ccc2cc(O)cc(-c3ncc4c(N5C[C@H]6CC[C@@H](C5)N6)nc(OCC56CCCN5CCC6)nc4c3F)c12` [Example 314, 4-(4-((1R,5S)-3,8-diazabicyclo[3.2.1]octan-3-yl)-8-fluoro-2-((hexahydro-1H-pyrrolizin-7a-yl)methoxy)pyrido[4,3-d]pyrimidin-7-yl)-5-ethyl-6-fluoronaphthalen-2-ol]: the IC50 worked out at 0.6 nM. Under `CC(C)Cc1ccccc1-c1ncc2c(N3CC4CCC(C3)N4)nc(OC[C@@]34CCCN3C[C@H](F)C4)nc2c1F` (stereo in doubt) [Example 417, 4-((1R,5S)-3,8-diazabicyclo[3.2.1]octan-3-yl)-8-fluoro-2-((2-fluorotetrahydro-1H-pyrrolizin-7a(5H)-yl)methoxy)-7-(2-isobutylphenyl)pyrido[4,3-d]pyrimidine] stands 595 nM; under `OCCc1cccc2cccc(-c3ncc4c(N5C[C@H]6CC[C@@H](C5)N6)nc(OCC56CCCN5CCC6)nc4c3F)c12` [Example 239, 2-(8-(4-((1R,5S)-3,8-diazabicyclo[3.2.1]octan-3-yl)-8-fluoro-2-((tetrahydro-1H-pyrrolizin-7a(5H)-yl)methoxy)pyrido[4,3-d]pyrimidin-7-yl)naphthalen-1-yl)ethan-1-ol], 2 nM; under `COc1c(C)cccc1-c1ncc2c(N3C[C@H]4CC[C@@H](C3)N4)nc(OCC34CCCN3CCC4)nc2c1F` [Example 313, 4-((1R,5S)-3,8-diazabicyclo[3.2.1]octan-3-yl)-8-fluoro-2-((hexahydro-1H-pyrrolizin-7a-yl)methoxy)-7-(2-methoxy-3-methylphenyl)pyrido[4,3-d]pyrimidine], 231 nM. The same measure for `Fc1c(-c2c(C(F)(F)F)ccc3[nH]ncc23)ncc2c(N3CC4CCC(C3)N4)nc(OCC34CCCN3C[C@H](F)C4)nc12` (mixture of isomers) [Example 343, 4-((1R,5S)-3,8-diazabicyclo[3.2.1]octan-3-yl)-8-fluoro-2-((2-fluorotetrahydro-1H-pyrrolizin-7a(5H)-yl)methoxy)-7-(5-(trifluoromethyl)-1H-indazol-4-yl)pyrido[4,3-d]pyrimidine (racemic, trans)]: 10.4 nM; for `Fc1c(-c2cccc3cccc(Cl)c23)ncc2c(N3C[C@H]4CC[C@@H](C3)N4)nc(OCC34CCCN3CC(F)(F)C4)nc12` (stereo partly drawn) [Example 93, 4-((1R,5S)-3,8-diazabicyclo[3.2.1]octan-3-yl)-7-(8-chloronaphthalen-1-yl)-2-((2,2-difluorotetrahydro-1H-pyrrolizin-7a(5H)-yl)methoxy)-8-fluoropyrido[4,3-d]pyrimidine bis(2,2,2-trifluoroacetate)]: 105 nM. The same measure for `COC1CN2CCCC2(COc2nc(N3CC4CCC(C3)N4)c3cnc(-c4cc(O)cc5cccc(F)c45)c(F)c3n2)C1` (mixture of isomers) [Example 388, 4-(4-((1R,5S)-3,8-diazabicyclo[3.2.1]octan-3-yl)-8-fluoro-2-((2-methoxytetrahydro-1H-pyrrolizin-7a(5H)-yl)methoxy)pyrido[4,3-d]pyrimidin-7-yl)-5-fluoronaphthalen-2-ol]: 0.6 nM; for `O=C1CCC2(COc3nc(N4C[C@H]5CC[C@@H](C4)N5)c4cnc(-c5cccc6cccc(Cl)c56)c(F)c4n3)CCCN12` (stereo partly drawn) [Example 83, 7a-(((4-((1R,5S)-3,8-diazabicyclo[3.2.1]octan-3-yl)-7-(8-chloronaphthalen-1-yl)-8-fluoropyrido[4,3-d]pyrimidin-2-yl)oxy)methyl)hexahydro-3H-pyrrolizin-3-one bis(2,2,2-trifluoroacetate)]: 8690 nM. As to `Fc1c(-c2c(OC(F)(F)F)ccc3[nH]ncc23)ncc2c(N3C[C@H]4CC[C@@H](C3)N4)nc(OCC34CCCN3CCC4)nc12` [Example 258, 4-((1R,5S)-3,8-diazabicyclo[3.2.1]octan-3-yl)-8-fluoro-2-((hexahydro-1H-pyrrolizin-7a-yl)methoxy)-7-(5-(trifluoromethoxy)-1H-indazol-4-yl)pyrido[4,3-d]pyrimidine], the half-maximal inhibitory concentration (IC50) worked out at 6.5 nM.

`Oc1cc(-c2ncc3c(N4C[C@H]5CC[C@@H](C4)N5)nc(OCCC(F)(F)F)nc3c2F)c2c(Cl)cccc2c1` [Example 393, 4-(4-((1R,5S)-3,8-diazabicyclo[3.2.1]octan-3-yl)-8-fluoro-2-(3,3,3-trifluoropropoxy)pyrido[4,3-d]pyrimidin-7-yl)-5-chloronaphthalen-2-ol] displayed an IC50 of 76.3 nM.

With `NCCOc1nc(N2C[C@H]3CC[C@@H](C2)N3)c2cnc(-c3cccc4cccc(Cl)c34)c(F)c2n1` [Example 261, 2-((4-((1R,5S)-3,8-diazabicyclo[3.2.1]octan-3-yl)-7-(8-chloronaphthalen-1-yl)-8-fluoropyrido[4,3-d]pyrimidin-2-yl)oxy)ethanamine], the IC50 was 8300 nM. Under `CN1CCC[C@H]1COc1nc(N2C[C@H]3CC[C@@H](C2)N3)c2cnc(-c3cc(O)cc4cccc(Cl)c34)c(F)c2n1` [Example 63, 4-(4-((1R,5S)-3,8-diazabicyclo[3.2.1]octan-3-yl)-8-fluoro-2-(((S)-1-methylpyrrolidin-2-yl)methoxy)pyrido[4,3-d]pyrimidin-7-yl)-5-chloronaphthalen-2-ol] stands 0.4 nM. The same measure for `Fc1c(-c2cccc3cccc(Cl)c23)ncc2c(N3CC4CCC(C3)N4)nc(OCC34CCCN3C[C@H](F)C4)nc12` (stereo partly drawn) [Example 226, 4-((1R,5S)-3,8-diazabicyclo[3.2.1]octan-3-yl)-7-(8-chloronaphthalen-1-yl)-8-fluoro-2-((2-fluorotetrahydro-1H-pyrrolizin-7a(5H)-yl)methoxy)pyrido[4,3-d]pyrimidine bis-hydrochloride]: 25.9 nM; for `C#CCc1ccc(O)cc1-c1ncc2c(N3C[C@H]4CC[C@@H](C3)N4)nc(OCC34CCCN3CCC4)nc2c1F` [Example 279, 3-(4-((1R,5S)-3,8-diazabicyclo[3.2.1]octan-3-yl)-8-fluoro-2-((hexahydro-1H-pyrrolizin-7a-yl)methoxy)pyrido[4,3-d]pyrimidin-7-yl)-4-(prop-2-yn-1-yl)phenol]: 1.6 nM.
